According to patent US8933113B2 (Merck Sharp & Dohme Corp., priority 2011, dated 2015):

biological target: T1, full-length human Mineralocorticoid Receptor (MR) (Homo sapiens, UniProt P08235); assay: human MR NH Pro assay (PathHunter Protein:Protein interaction assay), MR antagonist activity; format: cell-based; conditions: PathHunter CHO-K1 cells overexpressing human MR; aldosterone about 0.3 nM; 6 hours at 37° C.; luminescence; read-out: Primary Assay IP rating (IP = inflection point for a given dose-response titration curve)
T1 construct: host or cells: PathHunter CHO-K1 cells
T1 sequence (P08235 1-984): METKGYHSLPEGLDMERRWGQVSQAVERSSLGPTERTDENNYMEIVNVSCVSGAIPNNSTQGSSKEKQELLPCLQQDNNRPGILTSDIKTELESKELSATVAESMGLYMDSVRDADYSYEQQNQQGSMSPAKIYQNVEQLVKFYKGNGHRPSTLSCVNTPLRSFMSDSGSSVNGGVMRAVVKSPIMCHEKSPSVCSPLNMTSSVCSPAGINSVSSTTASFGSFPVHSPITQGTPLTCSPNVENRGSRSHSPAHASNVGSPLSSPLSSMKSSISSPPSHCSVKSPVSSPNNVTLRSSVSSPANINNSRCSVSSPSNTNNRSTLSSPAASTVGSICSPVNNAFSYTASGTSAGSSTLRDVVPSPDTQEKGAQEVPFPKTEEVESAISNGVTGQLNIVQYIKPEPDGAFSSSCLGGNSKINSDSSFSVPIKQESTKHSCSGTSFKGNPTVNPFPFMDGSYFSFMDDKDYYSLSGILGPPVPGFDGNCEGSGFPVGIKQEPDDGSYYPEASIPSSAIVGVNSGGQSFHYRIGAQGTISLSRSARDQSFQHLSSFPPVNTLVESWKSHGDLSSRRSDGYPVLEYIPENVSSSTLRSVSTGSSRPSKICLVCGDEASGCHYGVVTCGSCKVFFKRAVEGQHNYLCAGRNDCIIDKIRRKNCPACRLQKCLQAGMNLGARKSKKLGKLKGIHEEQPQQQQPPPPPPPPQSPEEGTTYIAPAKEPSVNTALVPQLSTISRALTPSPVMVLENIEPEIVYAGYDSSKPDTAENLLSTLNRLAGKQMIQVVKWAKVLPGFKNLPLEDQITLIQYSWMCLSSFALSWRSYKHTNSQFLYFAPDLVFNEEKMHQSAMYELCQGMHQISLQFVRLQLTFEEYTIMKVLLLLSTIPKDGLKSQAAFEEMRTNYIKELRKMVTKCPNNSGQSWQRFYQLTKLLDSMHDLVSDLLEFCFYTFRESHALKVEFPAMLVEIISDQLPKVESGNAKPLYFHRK
Outline: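 PathHunter enzyme-complementation assay in cells of full-length human MR recruitment of a coactivator peptide, run in antagonist mode against aldosterone at about 0.3 to 1.0 nM final. Compounds are in a 10-point, 1:3 series from a 4.4 mM top. Incubation is 6 h at 37° C, then detection reagent for 1 h at RT, with a luminescence read-out.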

Q: Which IC50 does the source give for `CCC(C(=O)NCCC#N)(c1ccc(Cl)cc1)n1ccc2c(NS(C)(=O)=O)cccc21` (stereo not shown) [Compound 48, 2-(4-chlorophenyl)-N-(2-cyanoethyl)-2-{4-[(methylsulfonyl)amino]-1H-indol-1-yl}butanamide] here?
A: The IC50 was 500 to 5000 nM.

Q: How did the IC50 turn out when `COC(=O)C(CCF)(c1ccc(Cl)cc1)n1ccc2c(NS(C)(=O)=O)cccc21` (stereo not shown) [Compound 156, methyl 2-(4-chlorophenyl)-4-fluoro-2-(4-(methylsulfonamido)-1H-indol-1-yl)butanoate] was run?
A: The IC50 was under 100 nM.

Q: How did the IC50 turn out when `CCC(c1ccc(Cl)cc1)(C(O)COC)n1ccc2c(NS(C)(=O)=O)cccc21` (stereo not shown) [Compound 173, N-(1-(3-(4-chlorophenyl)-2-hydroxy-1-methoxypentan-3-yl)-1H-indol-4-yl)methanesulfonamide] was run?
A: Its IC50 is 100 to 500 nM.

Q: How did the IC50 turn out when `CCC(C(C)=O)(c1ccc(Cl)cc1)n1ncc2c(NS(=O)(=O)NC)cccc21` (stereo not shown) [Compound 105] was run?
A: Its IC50 is under 100 nM.

Q: How did the IC50 turn out when `CCC(c1ccc(Cl)cc1)(n1ccc2c(NS(C)(=O)=O)cccc21)C1(O)CC1` (stereo not shown) [Compound 154, N-(1-(1-(4-chlorophenyl)-1-(1-hydroxycyclopropyl)propyl)-1H-indol-4-yl)methanesulfonamide] was run?
A: The IC50 was under 100 nM.

Q: `CCC(CCC#N)(c1ccccc1)n1ncc2c(NS(C)(=O)=O)cc(F)cc21` (stereo not shown) [Compound 144, N-(1-(1-cyano-3-phenylpentan-3-yl)-6-fluoro-1H-indazol-4-yl)methanesulfonamide] was tested. Which IC50 did it give?
A: Its IC50 is under 100 nM.

Q: With `CCNC(=O)C(CC)(c1ccc(Cl)cc1)n1ccc2c(NS(C)(=O)=O)cccc21` (stereo not shown) [Compound 46, 2-(4-chlorophenyl)-N-ethyl-2-{4-[(methylsulfonyl)amino]-1H-indol-1-yl}butanamide] as the compound, how does the IC50 read?
A: Its IC50 is 100 to 500 nM.

Q: With `CC[C@@](c1ccc(Cl)cc1)(c1nnc(C2CC2)o1)n1ccc2c(NS(C)(=O)=O)cccc21` [Compound 67, (R)—N-{1-[1-(4-chlorophenyl)-1-(5-cyclopropyl-1,3,4-oxadiazol-2-yl)propyl]-1H-indol-4-yl}methanesulfonamide] as the compound, how does the IC50 read?
A: Its IC50 is 100 to 500 nM.

Q: With `CCC(CC(F)(F)F)(c1ccc(Cl)cc1)n1ncc2c(NS(C)(=O)=O)cccc21` (stereo not shown) [Compound 159, N-(1-(3-(4-chlorophenyl)-1,1,1-trifluoropentan-3-yl)-1H-indazol-4-yl)methanesulfonamide] as the compound, how does the IC50 read?
A: Its IC50 is under 100 nM.

Q: How did the IC50 turn out when `CCC(C(C)=O)(c1ccc(Cl)cc1)n1ccc2c(NS(C)(=O)=O)cccc21` (stereo not shown) [Compound 99, N-(1-(3-(4-chlorophenyl)-2-oxopentan-3-yl)-1H-indol-4-yl)methanesulfonamide] was run?
A: The IC50 was under 100 nM.

Q: With `CS(=O)(=O)Nc1cccc2c1ccn2C(CC#N)(C(=O)NCC(F)(F)F)c1ccc(Cl)cc1` (stereo not shown) [Compound 55, 2-(4-chlorophenyl)-3-cyano-2-{4-[(methylsulfonyl)amino]-1H-indol-1-yl}-N-(2,2,2-trifluoroethyl)propanamide] as the compound, how does the IC50 read?
A: Its IC50 is 100 to 500 nM.

Q: `CCC(COC)(c1ccc(Cl)cc1)n1ncc2c(NS(C)(=O)=O)cccc21` (single isomer, unassigned) [Compound 97, N-(1-(2-(4-chlorophenyl)-1-methoxybutan-2-yl)-1H-indazol-4-yl)methanesulfonamide] was tested. Which IC50 did it give?
A: The IC50 was under 100 nM.

Q: For `CC[C@](C(=O)NC(C)C)(c1ccc(Cl)cc1)n1ccc2c(NS(C)(=O)=O)cccc21` [Compound 44, (R)-2-(4-chlorophenyl)-N-(1-methylethyl)-2-{4-[(methylsulfonyl)amino]-1H-indol-1-yl}butanamide], which IC50 is on record?
A: The IC50 was 100 to 500 nM.

Q: For `CCC(CCC(F)(F)F)(c1ccc(Cl)cc1)n1ccc2c(NS(C)(=O)=O)cccc21` (single isomer, unassigned) [Compound 180, N-(1-(3-(4-chlorophenyl)-6,6,6-trifluorohexan-3-yl)-1H-indol-4-yl)methane sulfonamide], which IC50 is on record?
A: The IC50 was under 100 nM.

Q: `COC(=O)C(c1ccc(Br)cc1)n1ccc2c(NS(C)(=O)=O)cccc21` (stereo not shown) [Compound 24, methyl (4-bromophenyl){4-[(methylsulfonyl)amino]-1H-indol-1-yl}acetate] was tested. Which IC50 did it give?
A: Its IC50 is 500 to 5000 nM.

Q: How did the IC50 turn out when `CCC(C(=O)OC)(c1ccc(F)cc1Cl)n1ccc2c(NS(C)(=O)=O)cccc21` (stereo not shown) [Compound 31, Methyl 2-(2-chloro-4-fluorophenyl)-2-{4-[(methylsulfonyl)amino]-1H-indol-1-yl}butanoate] was run?
A: The IC50 was 100 to 500 nM.

Q: How did the IC50 turn out when `CCC(c1ccc(Cl)cc1)(C(C)O)n1ncc2c(NS(C)(=O)=O)cccc21` (single isomer, unassigned) [Compound 107] was run?
A: Its IC50 is under 100 nM.

Q: For `CCC(c1ccc(Cl)cc1)(c1nnc(C)o1)n1ccc2c(NS(C)(=O)=O)cccc21` (stereo not shown) [Compound 68, N-{1-[1-(4-chlorophenyl)-1-(5-methyl-1,3,4-oxadiazol-2-yl)propyl]-1H-indol-4-yl}methanesulfonamide], which IC50 is on record?
A: The IC50 was 100 to 500 nM.

Q: How did the IC50 turn out when `CCC(/C=C/C#N)(c1ccc(Cl)cc1)n1ncc2c(N(C(=O)OC(C)(C)C)S(C)(=O)=O)cccc21` (stereo not shown) [Compound 135, (E)-tert-butyl 1-(3-(4-chlorophenyl)-1-cyanopent-1-en-3-yl)-1H-indazol-4-yl(methylsulfonyl) carbamate] was run?
A: Its IC50 is under 100 nM.

Q: `CCC(CCCO)(c1ccc(Cl)cc1)n1ccc2c(NS(C)(=O)=O)cccc21` (stereo not shown) [Compound 169, N-(1-(3-(4-chlorophenyl)-6-hydroxyhexan-3-yl)-1H-indol-4-yl)methanesulfonamide] was tested. Which IC50 did it give?
A: Its IC50 is under 100 nM.

Q: With `CCC(C1=C(C#N)CCO1)(c1ccc(Cl)cc1)n1ccc2c(NS(C)(=O)=O)cccc21` (stereo not shown) [Compound 147, N-(1-(1-(4-Chlorophenyl)-1-(3-cyano-4,5-dihydrofuran-2-yl)propyl)-1H-indol-4-yl)methane-sulfonamide] as the compound, how does the IC50 read?
A: The IC50 was 100 to 500 nM.

Q: How did the IC50 turn out when `CCC(c1ccc(Cl)cc1)(c1nnc(-c2ccc(Cl)cc2)o1)n1ccc2c(NS(C)(=O)=O)cccc21` (stereo not shown) [Compound 71, N-(1-{1-(4-chlorophenyl)-1-[5-(4-chlorophenyl)-1,3,4-oxadiazol-2-yl]propyl}-1H-indol-4-yl)methanesulfonamide] was run?
A: Its IC50 is under 100 nM.

Q: How did the IC50 turn out when `CC[C@@](c1ccc(Cl)cc1)(c1nnc(C(F)(F)F)[nH]1)n1ccc2c(NS(C)(=O)=O)cccc21` [Compound 66, (R)—N-(1-{1-(4-chlorophenyl)-1-[5-(trifluoromethyl)-4H-1,2,4-triazol-3-yl]propyl}-1H-indol-4-yl)methanesulfonamide] was run?
A: The IC50 was 100 to 500 nM.

Q: For `CCC(C(=O)CC#N)(c1ccc(Cl)cc1)n1ccc2c(NS(C)(=O)=O)cccc21` (single isomer, unassigned) [Compound 146, N-(1-(3-(4-Chlorophenyl)-1-cyano-2-oxopentan-3-yl)-1H-indol-4-yl)methanesulfonamide], which IC50 is on record?
A: Its IC50 is under 100 nM.

Q: Which IC50 does the source give for `CCC(CCC#N)(c1ccc(Cl)cc1)n1ccc2c(NS(C)(=O)=O)cc(F)cc21` (single isomer, unassigned) [Compound 143, N-(1-(3-(4-chlorophenyl)-1-cyanopentan-3-yl)-6-fluoro-1H-indol-4-yl)methanesulfonamide] here?
A: The IC50 was under 100 nM.

Q: How did the IC50 turn out when `CCC(c1ccc(Cl)cc1)(c1nnc(-c2ccc(F)cc2)o1)n1ccc2c(NS(C)(=O)=O)cccc21` (stereo not shown) [Compound 72, N-(1-{1-(4-chlorophenyl)-1-[5-(4-fluorophenyl)-1,3,4-oxadiazol-2-yl]propyl}-1H-indol-4-yl)methanesulfonamide] was run?
A: Its IC50 is 100 to 500 nM.

Q: `CCC(CC#N)(c1ccc(Cl)cc1)n1ccc2c(NS(C)(=O)=O)cccc21` (single isomer, unassigned) [Compound 122, N-(1-(2-(4-chlorophenyl)-1-cyanobutan-2-yl)-1H-indol-4-yl)methanesulfonamide] was tested. Which IC50 did it give?
A: The IC50 was under 100 nM.

Q: For `CCC(c1ccc(Cl)cc1)(C1CC1C#N)n1ncc2c(NS(C)(=O)=O)cccc21` (stereo not shown) [Compound 120, N-(1-(1-(4-chlorophenyl)-1-(2-cyanocyclopropyl)propyl)-1H-indazol-4-yl)methanesulfonamide], which IC50 is on record?
A: Its IC50 is under 100 nM.

Q: `CC[C@@](c1ccc(Cl)cc1)(c1noc(C)n1)n1ccc2c(NS(C)(=O)=O)cccc21` [Compound 57] was tested. Which IC50 did it give?
A: Its IC50 is under 100 nM.

Q: For `CCn1nnc(C(CC)(c2ccc(Cl)cc2)n2ccc3c(NS(C)(=O)=O)cccc32)n1` (single isomer, unassigned) [Compound 179, N-(1-(1-(4-chlorophenyl)-1-(2-ethyl-2H-tetrazol-5-yl)propyl)-1H-indol-4-yl)methane sulfonamide], which IC50 is on record?
A: Its IC50 is under 100 nM.

Q: For `CCC(C(=O)NCC#N)(c1ccc(Cl)cc1)n1ccc2c(NS(C)(=O)=O)cccc21` (stereo not shown) [Compound 149, 2-(4-chlorophenyl)-N-(cyanomethyl)-2-(4-(methylsulfonamido)-1H-indol-1-yl)butanamide], which IC50 is on record?
A: Its IC50 is under 100 nM.
